Data as given in patent US20120142771A1, “BIPHENYLACETAMIDE DERIVATIVE” (Dainippon Sumitomo Pharma Co., Ltd., priority 2008, published 2012).
Read-outs that look alike come from different tables or passages of the source.

Tests used:
[1] = system: maximum electroshock seizure (MES) model; test: Maximum electroshock seizure (MES) model test; type: in vivo, mice; settings: for responders at 50 mg/kg / responders at 100 mg/kg: Mus musculus, po, 1 h, read-out: MES (positive number/tested number) (converted); for responders at 50 mg/kg / responders at 100 mg/kg / MES (positive number/tested number): Slc: ddY male mice, 3 per group, electrical stimulation 1 hour after administration, inhibition of hind limb extension; for anticonvulsant action in maximum electroshock seizure (MES) model test: mice, oral 50 or 100 mg/kg, 1 hour after administration
Outline: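 Tonic hind-limb extension was elicited by corneal electroshock (60 Hz, 25 mA, 0.2 s) 1 h after oral dosing. Test compounds were given at 50 or 100 mg/kg to groups of 3 male Slc: ddY mice (20-30 g), vehicle controls receiving 0.5% tragacanth or 0.5% methylcellulose solution.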

[2] = system: subcutaneously pentetrazol-injected model (scPTZ); test: Subcutaneously pentetrazol-injected model (scPTZ) test; type: in vivo, mice; settings: pentetrazol 85 mg/kg s.c. after 1 hour; for responders at 50 mg/kg / responders at 100 mg/kg: Mus musculus, po, 1 h, read-out: scPTZ (positive number/tested number) (converted); for responders at 50 mg/kg / responders at 100 mg/kg / scPTZ (positive number/tested number): Slc: ddY male mice, 3 per group, observed 30 minutes for clonic convulsion; for anticonvulsant action in subcutaneously pentetrazol-injected model (scPTZ) test: mice, oral 50 or 100 mg/kg
Outline: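 Pentetrazol (85 mg/kg, s.c.) was injected one hour after oral test compound at 50 or 100 mg/kg in groups of three male Slc:ddY mice weighing 20-30 g; vehicle controls got 0.5% tragacanth or 0.5% methylcellulose.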

[3] = system: 6 Hz psychomotor seizure model; test: 6 Hz psychomotor seizure model; type: in vivo, mice; settings: mice; for ED50: 6 Hz psychomotor seizure model, read-out: ED50; for ED50 / 6 Hz (Positive number/tested number): oral; for 6 Hz (Positive number/tested number): dose 100 mg/kg, 30 minutes or 1 hour after administration
Method: Test 4: Test of 6 Hz Psychomotor Seizure Model
Similar to Tests 1 and 2, Test 4 evaluates the anticonvulsant action of medicaments. However, unlike Tests 1 and 2, the animal model used herein represents clinical phenotypes of seizures resistant to existing antiepileptic drugs. […] After 30 minutes or an hour of administration, their corneas were electrically stimulated (6 Hz, 32 mA, 3 seconds) to induce symptoms of myoclonus in their forelimbs, Straub tail, and immobility. […] To the control mice, 0.5% tragacanth solution, 0.5% methylcellulose solution, or olive oil was administered.

Slc: ddY male mice = test: Rotarod performance test (motor disturbance); type: in vivo; settings: 1 hour after administration, 10 mice
Method: Test 5: Rotarod Performance Test
Test 5 evaluates whether motor disturbance is caused by medicaments. On the day before the test, Slc: ddY male mice (body weight 20-30 g) were trained so that they could walk on a rotarod apparatus for 3 minutes without falling, wherein a cylinder of 4 cm diameter is rotated with a speed of 13 rotations per minute. Test compounds were orally administered to a group consisting of 10 mice. […] When the mice fell down within 100 seconds because of disturbed motor coordination, such mice were counted as positive. To the control mice, 0.5% methylcellulose solution was administered.

Compound | responders at 50 mg/kg ([1]; 50 mg/kg oral) | responders at 100 mg/kg ([1]; 100 mg/kg oral) | responders at 50 mg/kg ([2]; 50 mg/kg oral) | responders at 100 mg/kg ([2]; 100 mg/kg oral) | ED50 ([3]; Mus musculus) | 6 Hz (Positive number/tested number) [3] | The rate of mice which fell within 100 seconds (%) (Slc: ddY male mice; 100 mg/kg oral) | The rate of mice which fell within 100 seconds (%) (Slc: ddY male mice; 200 mg/kg oral) | The rate of mice which fell within 100 seconds (%) (Slc: ddY male mice; 300 mg/kg oral) | The rate of mice which fell within 100 seconds (%) (Slc: ddY male mice; 400 mg/kg oral) | anticonvulsant action in maximum electroshock seizure (MES) model test [1] | anticonvulsant action in subcutaneously pentetrazol-injected model (scPTZ) test [2] | efficacy in 6 Hz psychomotor seizure model ([3]; oral administration at a dose of 100 mg/kg) | MES (positive number/tested number) ([1]; 50 mg/kg oral) | MES (positive number/tested number) ([1]; 100 mg/kg oral) | scPTZ (positive number/tested number) ([2]; 50 mg/kg oral) | scPTZ (positive number/tested number) ([2]; 100 mg/kg oral) | ED50 [3]
NC(=O)Cc1cc(F)ccc1-c1ccccc1F [Example 46, 2-(2′,4-difluorobiphenyl-2-yl)acetamide] | 66.7% | 100% | 0% | 100% | 120 mg/kg | 5/10/100 | 20% | 20% | 60% | 90% |  |  |  |  |  |  |  | 
NC(=O)Cc1ccccc1-c1cc(Cl)cc(Cl)c1 [Example 71, 2-(3′,5′-dichlorobiphenyl-2-yl)acetamide] | 66.7% | 100% | 66.7% | 66.7% | 82.8 mg/kg | 7/10/100 | 0% | 20% | 30% | 70% | anticonvulsant action was observed | anticonvulsant action was observed |  |  |  |  |  | 
NC(=O)C(O)c1cc(F)ccc1-c1cc(Cl)cc(Cl)c1 (centres unmarked) [Example 189, 2-(3′,5′-dichloro-4-fluorobiphenyl-2-yl)-2-hydroxyacetamide] | 100% | 66.7% | 33.3% | 66.7% |  | 3/5/100 |  |  |  |  |  |  |  |  |  |  |  | 
NC(=O)C(O)c1ccccc1-c1ccccc1Cl (centres unmarked) [Example 190, 2-(2′-chlorobiphenyl-2-yl)-2-hydroxyacetamide] | 66.7% | 100% | 66.7% | 66.7% |  | 5/5/100 |  |  |  |  | anticonvulsant action was observed | anticonvulsant action was observed | potent efficacy |  |  |  |  | 
NC(=O)[C@@H](O)c1ccccc1-c1ccccc1 [Example 208, 2-(biphenyl-2-yl)-2S-hydroxyacetamide] |  |  |  |  |  | 7/10/100 |  |  |  |  |  |  |  | 2/3 | 3/3 | 1/3 | 2/3 | 90.6 mg/kg
